Data reported in US10073097B2, “Diagnostic assays and methods of treating pneumonia, sepsis and systemic inflammatory response syndrome” (priority 2012, dated 2018).
Entries after “also recorded” stand apart in the source; their conditions may differ. Residues, ends and D or L forms follow the SMILES beside them. *: point of attachment. Cbz = O=C(OCc1ccccc1)*; CH2F = FC*

Experiments:
peritoneal cells = test: NDMP generation by peritoneal cells collected 24 H after TGA treatment, cultured with agonists or inhibitors; assay type: cell-based, mice; details: peritoneal cells 24 H after 3% TGA; for decrease in NDMP generation when compared to cells cultured without inhibitor: ML7 250 μM, Z-VAD-FMK 200 μM, Z-IETD-FMK 30 μM, flow cytometry; for NDMP numbers compared to cells cultured without agent: 8-Br-cAMP 100 μM, H89 20 μM, 6-Bnz-cAMP 100 μM, 8-CPT-2Me-cAMP 100 μM, Y27632 30 μM, PGE2 1 μM, 24 H
Method: Experimental Protocol. A biochemical pathway for NDMP formation was investigated. Specifically, proteins associated with F-actin were investigated, as F-actin rearrangement is a terminal step in apoptosis. The role of myosin light chain kinase (hereinafter “MLC K”) in NDMP generation was initially investigated. Peritoneal cells were isolated from peritoneal lavage 24 H after 1 mL 3% TGA injection. Peritoneal cells were cultured with one of the following agonists or inhibitors overnight in a CO2 incubator: 250 μM ML7, a MLCK inhibitor, (Tocris, Bristol, UK), 200 μM Z-VAD-FMK, a caspase 3 inhibitor, (Tocris), 30 μM Z-IETD-FMK, a caspase 8 inhibitor, (Tocris), or 30 μM Z-LEHD-FMK, or a caspase 9 inhibitor, (Tocris). Cells and MPs were collected 24 H following incubation and analyzed using flow cytometry as previously described.
Statistical comparisons were performed using Student t Test (two groups), or one-way ANOVA with Holm-Sidak post-hoc test (more than two groups) using StatView 3.5 (SAS Institute, Cary, N.C.). The mean and standard error of the mean were calculated in experiments containing multiple data points. A value of p≤0.05 was considered statistically significant.
Experimental Protocol. Elucidation of potential signaling pathways involved in NDMP formation was studied. Peritoneal cells were isolated from peritoneal lavage 24 H after 1 mL 3% TGA injection. […] Cells and MPs were collected 24 H following incubation and analyzed using flow cytometry as previously described.

C57BL/6 mice = test: Intraperitoneal treatment of mice with TGA, LPS or PepG: peritoneal neutrophil recruitment and NDMP generation; assay type: in vivo; details: for neutrophil recruitment and NDMP generation/accumulation in the peritoneum: i.p. injection, peritoneal lavage 24 H after 3% TGA; for # NDMPs: peritoneal NDMPs after treatment; for # NDMPs / # Neuts: 3% TGA 1 mL i.p., PepG 1 mg i.p., LPS 100 μg i.p., CLP 75% ligation/23 gauge puncture; for # Neuts: peritoneal neutrophils after treatment
Method: Low-endotoxin NDMPs were generated and used to assess host response during sepsis. More specifically, mice were treated with intraperitoneal injections of 3% thioglycolate (hereinafter, “TGA”), LPS, or petidylglycan (hereinafter “PepG”). Peritoneal neutrophil recruitment, NDMPs, and endotoxin associated with NDMPs were quantified.
Experimental Protocol. The ability of TGA to generate microparticles in vivo was investigated. Male C57BL/6 mice between 6 and 8 weeks of age (about 20 to 28 g) were injected in the peritoneum with 1 mL 3% thioglycolate (Sigma, St. Louis, Mo.) or with vehicle. Peritoneal lavage was performed 24 H after injection. Peritoneal cells were pelleted after a 10-minute 450×g centrifugation. The supernatant was then centrifuged for 10 minutes at 9,900×g to remove platelets. The platelet-free supernatant was centrifuged for 20 minutes at 16,000×g in order to pellet MPs. The MP pellet was resuspended in 500 μL sterile PBS and centrifuged for 20 minutes at 16,000×g. The MP pellet was then resuspended in 100 μL sterile PBS for analysis.
Analysis of cell surface antigen expression was performed on peritoneal lavage fluid. Flow cytometry data acquisition and analysis were performed on an LSR II using FACS Diva software (BD Biosciences). Antibodies used included: Ly-6G (Clone: 1A8, BioLegend), LY-6C (Clone: AL-21, BD Biosciences), CD11b (Clone: M1/70, BioLegend), Ter-119 (Clone: Ter-119, BioLegend), CD41 (Clone: MWReg30, BioLegend), CD105 (Clone: MJ7/18, BioLegend), Annexin V (BioLegend), and counting beads (Invitrogen, Grand Island, N.Y.). As shown in FIG. 19(A), forward and side scatter flow cytometry were initially performed on the lavage to both characterize and enumerate microparticles. A gate was created using 0.3-1.1 μm beads to isolate the MPs in the sample.
Vehicle mice and TGA-treated mice were stained with neutrophil specific Ly6G and annexinV antibodies. Total NDMPs from TGA-treated mice and vehicle mice were then enumerated.

[1] = test system: peritoneal cells isolated from septic mice; test: In vitro NDMP generation by peritoneal cells isolated from septic (CLP) mice; assay type: cell-based
Method: Experimental Protocol. Peritoneal lavage cells from mice made septic by cecal ligation and puncture were isolated. The cells were then incubated with or without lipopolysaccharide (hereinafter “LPS”, 100 ng/mL) for […]. MPs from these cultures were then isolated, quantified by bicinchoninic acid assay (hereinafter, “BCA”), and analyzed by fluorescence-activated cell sorting (hereinafter “FACS”).
Experimental Protocol. Peritoneal cells were isolated from septic mice 24 H after CLP. The isolated peritoneal cells were incubated with PBS or 100 ng/mL LPS for 24 H. Samples were analyzed using LSR II flow cytometer and FACS Diva software (BD Biosciences). As shown in FIG. 17(A), latex beads of a predetermined size were used to set the forward and side scatter voltages to best distinguish particles ranging from […].
Experimental Protocol. Signaling intermediates required for NDMP formation are largely unexplored. cAMP was targeted as a potential signaling mechanism involved in NDMP formation. Peritoneal cells were isolated 24 H after CLP surgeries. […] After 24 H, NDMPs were enumerated and characterized by flow cytometry.

Mouse neutrophils = test: NDMP generation by mouse bone marrow neutrophils treated with TNF-α with or without inhibitors; assay type: cell-based; details: for NDMPs after TNF-α plus caspase 8 inhibitor vs TNF-α alone: WT neutrophils, 25 ng/mL rhTNF-α (TNFr1) or rmTNF-α (TNFr1 and TNFr2)
Source text: Materials and Methods. Male C57BL/6 and TNFr1 KO (stock number: 003242) mice between 6 and 8 weeks of age were obtained from Jackson Labs (Bar Harbor, Me.). Mouse and human TNF-α Recombinant Protein (rmTNF-α and rhTNF-α, respectively) were purchased from Preprotech (Rocky Hill, N.J.). NF-κB inhibitor (BAY 11-7085) and Caspase 8 inhibitor (Z-IETD-FMK) were purchased from R&D systems (Minneapolis, Minn.). The pharmacological agents were solubilized in DMSO (American Bioanalytical, Natick, Mass.). The amount of DMSO was consistent in all samples groups. Neutrophil isolation. Mouse neutrophils from bone marrow were isolated from C57B1/6 mice as previously described. The femurs and tibias were flushed with Hanks' Balanced Salt Solution without calcium & Magnesium (HBSS) (Mediatech, Inc. Manassas, Va., USA). Bone marrow particulate was disaggregated and filtered in a 70 micron filter, then centrifuged at 400×g for 10 min at 23° C. The cells in the pellet were resuspended in HBSS, placed on a 55% Percoll gradient, and centrigued at 100×g for 30 min at 23° C. The pellet was washed once more. The final neutrophil preparation was re-suspended in HBSS. The purity and viability of the neutrophils (90% purity >99% viability, respectively) was determined by flow cytometry. Neutrophil purity was assessed by flow cytometry after cell staining with fluorescently conjugated antibodies to Ly-6G, CD19, CD3 and F4/80 with >99% of the cells negative for F4/80 and CD3. The main cell contaminant in this preparation was due to B cells. Further purification was not conducted by centriguation due to risk of non-specific neutrophil activation or by magnetic beads due to microparticle-sized contaminants introduced by the beads themselves.
Microparticle Generation and Analysis. Isolated neutrophils from bone marrow preparation were plated and cultured for the indicated time at 37° C. with stated treatments. The cell/micropartocle mixture was labeled for Ly-6G and Annexin V without manipulation as previously described. […] Neutrophil derived microparticle numbers were assessed using the neutrophil specific marker, Ly-6G (Clone: 1A8, BD Pharmingen, San Diego, Calif., United States); and Annexin V (BD Pharmingen). […]
Statistical Analysis. […] The mean and standard error of the mean were calculated in experiments containing multiple data points. […]
Using flow cytometry, forward- and side-channels were set to analyze particles using 0.5-, 0.9-, and 3.0-μm latex beads for calibration as previously described (FIG. 22A). […] To enumerate NDMPs, neutrophil and NDMP mixture were analyzed with the neutrophil-specific marker, Ly6G, and the apoptosis marker, annexin V. Vesicles within the 0.3-1.0 μm range that expressed both Ly6G and phosphatidylserine were identified as NDMPs. […]

With `Cl.O=S(=O)(c1cccc2c(I)cccc12)N1CCCNCC1` [ML7] the “decrease in NDMP generation when compared to cells cultured without inhibitor” value (shortened to “decrease … to cells cultured without inhibitor”) (peritoneal cells; 24 H culture) was 75%.

In the case of lipopolysaccharide [LPS], the “neutrophil recruitment and NDMP generation/accumulation in the peritoneum” value (C57BL/6 mice) is reported as “resulted in neutrophil recruitment and NDMP generation”, the “# NDMPs” value (C57BL/6 mice) is reported as 2.4 ×10^3 and the “# Neuts” value (C57BL/6 mice) is reported as 0.16 ×10^6. For the same molecule, the “NDMP formation from peritoneal cells” value ([1]; LPS 100 ng/mL vs PBS, 24 H, cells isolated 24 H after CLP) was “enhance NDMP formation” and the “increase in NDMPs from LPS-treated cells compared to spontaneous NDMP generation” value ([1]; LPS 100 ng/mL, 18 H, peritoneal lavage cells of CLP mice) was ~60%.

With `Cl.Cl.O=S(=O)(NCCNC/C=C/c1ccc(Br)cc1)c1cccc2cnccc12` [H89] the “NDMP numbers compared to cells cultured without agent” value (peritoneal cells) was “did not”.

For `CCCCC[C@H](O)/C=C/[C@H]1[C@H](O)CC(=O)[C@@H]1C/C=C\CCCC(=O)O` [PGE2, Prostaglandin E2], the “NDMP numbers compared to cells cultured without agent” value (peritoneal cells) was “decrease in the total number of NDMPs”.

With `O=C(Nc1ncnc2c1ncn2[C@@H]1O[C@@H]2COP(=O)(O)OC2C1O)c1ccccc1` (stereo in doubt) [6-Bnz-cAMP] the “NDMP numbers compared to cells cultured without agent” value (peritoneal cells) was “inhibited NDMP formation”.

`COC(=O)C[C@H](NC(=O)[C@H](C)NC(=O)[C@@H](NC(=O)OCc1ccccc1)C(C)C)C(=O)CF` [Z-VAD-FMK] (Cbz-Val-Ala-Asp(OMe)-CH2F) was tested, and the “decrease … to cells cultured without inhibitor” value (peritoneal cells; 24 H culture) was 37%.

`C[C@@H](N)[C@H]1CC[C@H](C(=O)Nc2ccncc2)CC1` [Y27632] was tested, and the “NDMP numbers compared to cells cultured without agent” value (peritoneal cells) was “decrease in the total number of NDMPs”.

`COC(=O)CC[C@H](NC(=O)[C@H](CC(C)C)NC(=O)OCc1ccccc1)C(=O)N[C@@H](Cc1cnc[nH]1)C(=O)N[C@@H](CC(=O)OC)C(=O)CF` [Z-LEHD-FMK] (Cbz-LE(OMe)HD(OMe)-CH2F) was tested, and the “NDMP generation compared to cells cultured without inhibitor” value (peritoneal cells; Z-LEHD-FMK 30 μM, 24 H culture) was “no significant difference”.

`CO[C@@H]1[C@@H]2OP(=O)(O)OC[C@H]2O[C@H]1n1c(Sc2ccc(Cl)cc2)nc2c(N)ncnc21` [EPAC, 8-CPT-2Me-cAMP] was tested, and the “NDMP numbers compared to cells cultured without agent” value (peritoneal cells) was “did not affect NDMP numbers”.

In the case of peptidoglycan [PepG], the “neutrophil recruitment and NDMP generation/accumulation in the peritoneum” value (C57BL/6 mice) is reported as “resulted in neutrophil recruitment and NDMP generation”, the “# NDMPs” value (C57BL/6 mice) is reported as 3.0 ×10^3 and the “# Neuts” value (C57BL/6 mice) is reported as 2.0 ×10^6.

thioglycolate [3% TGA] was tested, and the “neutrophil recruitment and NDMP generation/accumulation in the peritoneum” value (C57BL/6 mice) was “greatest number of low endotoxin NDMPs”, the “neutrophil recruitment and NDMP generation/accumulation in the peritoneum” value (C57BL/6 mice; listed as TGA) was “resulted in neutrophil recruitment and NDMP generation; also recorded: robust accumulation of NDMPs” and the “# NDMPs” value (C57BL/6 mice) was 35.1 ×10^3. For the same molecule, the “# Neuts” value (C57BL/6 mice) was 6.9 ×10^6.

`CC[C@H](C)[C@H](NC(=O)OCc1ccccc1)C(=O)N[C@@H](CCC(=O)OC)C(=O)N[C@H](C(=O)N[C@@H](CC(=O)OC)C(=O)CF)[C@@H](C)O` [Z-IETD-FMK] (Cbz-IE(OMe)TD(OMe)-CH2F) was tested, and the “NDMPs after TNF-α plus caspase 8 inhibitor vs TNF-α alone” value (Mouse neutrophils; 30 μM Z-IETD-FMK, 1 h, listed as Caspase 8 inhibitor) was “sharply decreased but not entirely eliminated”, the “NDMPs after TNF-α plus caspase 8 inhibitor vs TNF-α alone” value (Mouse neutrophils; 30 μM Z-IETD-FMK, 1 h, listed as caspase 8 inhibitor) was “significant decrease in NDMPs” and the “microparticle generation after TNF-α plus caspase 8 inhibitor, only TNFr2 activated” value (Mouse neutrophils; neutrophils from TNFr1−/− mice, 25 ng/mL rmTNF-α, 30 μM Z-IETD-FMK, 1 h, listed as Caspase 8 inhibitor) was “did not alter NDMP numbers; also recorded: no decrease in microparticle generation”. For the same molecule, the “decrease … to cells cultured without inhibitor” value (peritoneal cells; 24 H culture) was 37%.

In the case of `CC(C)(C)c1ccc(S(=O)(=O)/C=C/C#N)cc1` [BAY 11-7085], the “NDMP generation after activation of TNFr1, TNFr2 or both” value (Mouse neutrophils; WT or TNFr1−/− neutrophils, 25 ng/mL rmTNF-α or rhTNF-α, 20 μM BAY 11-7085, 1 h) is reported as “completely abrogates NDMP generation”.
